Data: patent US12479847B2 (DANA-FARBER CANCER INSTITUTE, INC., priority 2019, dated 2025)

What was measured:
Test in all cases: KINOMEscan (ScanMAX) kinase profiling
Format in all cases: binding
panel of 468 kinases [1] = target: T1, panel of 468 kinases (Homo sapiens, UniProt P27448); details: MARK3; 1 μM; read-out: % control
T1 construct: purchased KINOMEscan (ScanMAX) service

panel of 468 kinases [2] = target: T2, panel of 468 kinases (Homo sapiens, UniProt P07949, V804L); details: RET(V804L); 1 μM; read-out: % control
T2 construct: purchased KINOMEscan (ScanMAX) service

panel of 468 kinases [3] = target: T3, panel of 468 kinases (Homo sapiens, UniProt Q9BVS4); details: RIOK2; 1 μM; read-out: % control
T3 construct: purchased KINOMEscan (ScanMAX) service

panel of 468 kinases [4] = target: T4, panel of 468 kinases (Homo sapiens, UniProt P08581); details: MET; 1 μM; read-out: % control
T4 construct: purchased KINOMEscan (ScanMAX) service

panel of 468 kinases [5] = target: T5, panel of 468 kinases (Homo sapiens, UniProt P42336, I800L); details: PIK3CA(I800L); 1 μM; read-out: % control
T5 construct: purchased KINOMEscan (ScanMAX) service

panel of 468 kinases [6] = target: T6, panel of 468 kinases (Homo sapiens, UniProt Q9H3Y6); details: SRMS; 1 μM; read-out: % control
T6 construct: purchased KINOMEscan (ScanMAX) service

panel of 468 kinases [7] = target: T7, panel of 468 kinases (Homo sapiens, UniProt Q12866); details: MERTK; 1 μM; read-out: % control
T7 construct: purchased KINOMEscan (ScanMAX) service
T7 sequence (Q12866 21-999): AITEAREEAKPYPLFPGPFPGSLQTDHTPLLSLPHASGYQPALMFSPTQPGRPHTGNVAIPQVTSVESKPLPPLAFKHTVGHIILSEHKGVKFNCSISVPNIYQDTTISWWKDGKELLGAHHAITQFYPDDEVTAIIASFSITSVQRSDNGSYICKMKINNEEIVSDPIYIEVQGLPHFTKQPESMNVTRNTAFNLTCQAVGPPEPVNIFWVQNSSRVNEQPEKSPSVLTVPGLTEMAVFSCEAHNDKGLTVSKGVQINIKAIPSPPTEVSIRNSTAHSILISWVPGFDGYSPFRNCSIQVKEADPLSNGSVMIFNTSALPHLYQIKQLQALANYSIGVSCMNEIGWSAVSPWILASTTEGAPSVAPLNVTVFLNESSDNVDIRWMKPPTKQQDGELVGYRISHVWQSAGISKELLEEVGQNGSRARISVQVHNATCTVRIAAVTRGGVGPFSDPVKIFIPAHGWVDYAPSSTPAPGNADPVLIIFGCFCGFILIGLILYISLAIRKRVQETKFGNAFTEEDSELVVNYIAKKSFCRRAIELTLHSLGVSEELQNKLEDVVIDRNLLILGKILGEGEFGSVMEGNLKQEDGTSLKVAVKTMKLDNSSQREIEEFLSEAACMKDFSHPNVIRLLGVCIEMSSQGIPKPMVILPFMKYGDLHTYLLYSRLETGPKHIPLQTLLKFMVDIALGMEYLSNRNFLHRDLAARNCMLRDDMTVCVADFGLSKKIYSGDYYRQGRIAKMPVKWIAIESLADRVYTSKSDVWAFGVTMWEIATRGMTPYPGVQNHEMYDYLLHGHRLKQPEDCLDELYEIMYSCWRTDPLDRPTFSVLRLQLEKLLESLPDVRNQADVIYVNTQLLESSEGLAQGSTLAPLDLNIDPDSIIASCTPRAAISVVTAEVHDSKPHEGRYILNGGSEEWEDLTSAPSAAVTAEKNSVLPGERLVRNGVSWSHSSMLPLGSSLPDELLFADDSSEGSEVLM

panel of 468 kinases [8] = target: T8, panel of 468 kinases (Homo sapiens, UniProt Q14680); details: MELK; 1 μM; read-out: % control
T8 construct: purchased KINOMEscan (ScanMAX) service

panel of 468 kinases [9] = target: T9, panel of 468 kinases (Homo sapiens, UniProt P51817); details: PRKX; 1 μM; read-out: % control
T9 construct: purchased KINOMEscan (ScanMAX) service
T9 sequence (P51817 1-358): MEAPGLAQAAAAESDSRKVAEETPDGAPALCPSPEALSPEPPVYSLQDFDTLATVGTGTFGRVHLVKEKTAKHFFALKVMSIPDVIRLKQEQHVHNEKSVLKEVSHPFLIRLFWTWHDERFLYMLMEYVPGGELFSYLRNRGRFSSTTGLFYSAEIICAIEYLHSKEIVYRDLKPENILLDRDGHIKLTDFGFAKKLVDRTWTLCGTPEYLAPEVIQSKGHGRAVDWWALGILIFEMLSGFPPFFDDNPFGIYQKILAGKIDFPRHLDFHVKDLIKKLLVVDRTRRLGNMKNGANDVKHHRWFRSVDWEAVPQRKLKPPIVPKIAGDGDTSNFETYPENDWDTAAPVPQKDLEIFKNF

panel of 468 kinases [10] = target: T10, panel of 468 kinases (Homo sapiens, UniProt P49759); details: CLK1; 1 μM; read-out: % control
T10 construct: purchased KINOMEscan (ScanMAX) service

panel of 468 kinases [11] = target: T11, panel of 468 kinases (Homo sapiens, UniProt P09619); details: PDGFRB; 1 μM; read-out: % control
T11 construct: purchased KINOMEscan (ScanMAX) service

panel of 468 kinases [12] = target: T12, panel of 468 kinases (Homo sapiens, UniProt P45983); details: JNK1; 1 μM; read-out: % control
T12 construct: purchased KINOMEscan (ScanMAX) service

panel of 468 kinases [13] = target: T13, panel of 468 kinases (Homo sapiens, UniProt P53779); details: JNK3; 1 μM; read-out: % control
T13 construct: purchased KINOMEscan (ScanMAX) service
T13 sequence (P53779 whole entry): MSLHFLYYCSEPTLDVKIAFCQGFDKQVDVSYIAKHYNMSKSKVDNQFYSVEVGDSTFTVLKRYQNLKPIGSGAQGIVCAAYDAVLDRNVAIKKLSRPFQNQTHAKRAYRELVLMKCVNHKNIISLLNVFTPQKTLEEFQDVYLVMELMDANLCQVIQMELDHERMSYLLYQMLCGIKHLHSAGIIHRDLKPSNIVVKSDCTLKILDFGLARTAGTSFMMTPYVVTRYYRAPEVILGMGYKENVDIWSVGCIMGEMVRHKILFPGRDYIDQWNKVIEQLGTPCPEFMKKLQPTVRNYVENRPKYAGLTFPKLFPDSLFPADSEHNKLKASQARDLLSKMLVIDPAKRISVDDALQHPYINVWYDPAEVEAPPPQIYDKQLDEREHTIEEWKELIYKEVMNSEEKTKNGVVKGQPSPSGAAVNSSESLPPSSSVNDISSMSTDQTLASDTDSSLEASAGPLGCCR

T1 sequence (P27448 whole entry): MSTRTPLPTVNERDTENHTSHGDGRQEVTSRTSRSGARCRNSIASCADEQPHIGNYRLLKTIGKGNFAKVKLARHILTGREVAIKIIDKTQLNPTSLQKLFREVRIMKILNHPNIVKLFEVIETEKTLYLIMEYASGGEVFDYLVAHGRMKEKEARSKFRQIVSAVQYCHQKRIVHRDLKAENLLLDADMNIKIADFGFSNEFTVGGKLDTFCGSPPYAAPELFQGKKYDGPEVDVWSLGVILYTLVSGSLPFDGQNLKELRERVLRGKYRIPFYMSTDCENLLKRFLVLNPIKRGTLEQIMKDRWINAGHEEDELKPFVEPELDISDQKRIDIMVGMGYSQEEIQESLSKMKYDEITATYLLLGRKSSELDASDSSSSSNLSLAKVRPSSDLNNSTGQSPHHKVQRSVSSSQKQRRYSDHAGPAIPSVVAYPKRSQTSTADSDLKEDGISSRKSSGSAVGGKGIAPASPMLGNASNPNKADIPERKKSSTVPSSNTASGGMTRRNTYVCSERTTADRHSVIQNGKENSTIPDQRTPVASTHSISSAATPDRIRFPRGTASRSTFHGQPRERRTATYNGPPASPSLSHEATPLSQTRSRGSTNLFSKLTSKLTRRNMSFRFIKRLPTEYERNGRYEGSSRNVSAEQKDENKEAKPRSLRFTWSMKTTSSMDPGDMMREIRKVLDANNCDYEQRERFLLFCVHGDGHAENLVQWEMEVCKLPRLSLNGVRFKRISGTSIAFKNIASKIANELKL
T11 sequence (P09619 33-1106): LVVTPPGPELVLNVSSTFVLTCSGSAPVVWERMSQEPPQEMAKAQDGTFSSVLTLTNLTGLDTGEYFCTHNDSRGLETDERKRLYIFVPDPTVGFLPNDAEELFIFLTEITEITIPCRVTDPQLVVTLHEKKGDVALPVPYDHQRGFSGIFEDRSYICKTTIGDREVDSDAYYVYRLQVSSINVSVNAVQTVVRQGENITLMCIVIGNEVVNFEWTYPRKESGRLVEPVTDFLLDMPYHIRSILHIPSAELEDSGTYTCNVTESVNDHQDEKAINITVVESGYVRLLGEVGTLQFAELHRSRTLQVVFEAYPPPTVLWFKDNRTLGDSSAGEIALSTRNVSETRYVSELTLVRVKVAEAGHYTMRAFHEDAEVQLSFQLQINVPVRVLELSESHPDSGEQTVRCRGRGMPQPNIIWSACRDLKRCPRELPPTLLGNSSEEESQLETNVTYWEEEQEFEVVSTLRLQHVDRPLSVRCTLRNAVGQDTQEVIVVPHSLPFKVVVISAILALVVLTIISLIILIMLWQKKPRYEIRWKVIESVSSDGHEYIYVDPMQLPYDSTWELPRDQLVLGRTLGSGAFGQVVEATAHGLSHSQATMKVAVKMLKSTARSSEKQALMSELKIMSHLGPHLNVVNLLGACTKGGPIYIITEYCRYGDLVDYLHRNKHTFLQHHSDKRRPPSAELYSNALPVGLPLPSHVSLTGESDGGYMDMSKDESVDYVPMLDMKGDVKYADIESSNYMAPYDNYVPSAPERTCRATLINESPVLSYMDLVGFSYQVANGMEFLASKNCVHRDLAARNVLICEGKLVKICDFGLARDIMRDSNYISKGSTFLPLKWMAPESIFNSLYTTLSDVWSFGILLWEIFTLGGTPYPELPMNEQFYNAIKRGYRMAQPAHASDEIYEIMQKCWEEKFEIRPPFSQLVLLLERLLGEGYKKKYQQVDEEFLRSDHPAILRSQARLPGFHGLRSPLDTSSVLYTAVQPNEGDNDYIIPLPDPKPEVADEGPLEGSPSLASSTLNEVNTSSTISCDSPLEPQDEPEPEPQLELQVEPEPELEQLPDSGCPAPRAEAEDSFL
T12 sequence (P45983 whole entry): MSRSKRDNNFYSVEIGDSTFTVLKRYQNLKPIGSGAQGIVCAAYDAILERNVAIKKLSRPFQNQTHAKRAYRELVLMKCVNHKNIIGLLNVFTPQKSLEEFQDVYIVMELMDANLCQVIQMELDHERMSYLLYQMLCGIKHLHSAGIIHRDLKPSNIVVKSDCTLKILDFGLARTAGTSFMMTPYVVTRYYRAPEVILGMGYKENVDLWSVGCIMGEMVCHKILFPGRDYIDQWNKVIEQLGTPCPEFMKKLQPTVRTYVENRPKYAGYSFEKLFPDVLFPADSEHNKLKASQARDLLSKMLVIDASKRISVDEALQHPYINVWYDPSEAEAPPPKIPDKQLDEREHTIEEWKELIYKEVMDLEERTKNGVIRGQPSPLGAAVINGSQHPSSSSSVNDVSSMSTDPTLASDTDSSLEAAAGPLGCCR
T4 sequence (P08581 25-1390): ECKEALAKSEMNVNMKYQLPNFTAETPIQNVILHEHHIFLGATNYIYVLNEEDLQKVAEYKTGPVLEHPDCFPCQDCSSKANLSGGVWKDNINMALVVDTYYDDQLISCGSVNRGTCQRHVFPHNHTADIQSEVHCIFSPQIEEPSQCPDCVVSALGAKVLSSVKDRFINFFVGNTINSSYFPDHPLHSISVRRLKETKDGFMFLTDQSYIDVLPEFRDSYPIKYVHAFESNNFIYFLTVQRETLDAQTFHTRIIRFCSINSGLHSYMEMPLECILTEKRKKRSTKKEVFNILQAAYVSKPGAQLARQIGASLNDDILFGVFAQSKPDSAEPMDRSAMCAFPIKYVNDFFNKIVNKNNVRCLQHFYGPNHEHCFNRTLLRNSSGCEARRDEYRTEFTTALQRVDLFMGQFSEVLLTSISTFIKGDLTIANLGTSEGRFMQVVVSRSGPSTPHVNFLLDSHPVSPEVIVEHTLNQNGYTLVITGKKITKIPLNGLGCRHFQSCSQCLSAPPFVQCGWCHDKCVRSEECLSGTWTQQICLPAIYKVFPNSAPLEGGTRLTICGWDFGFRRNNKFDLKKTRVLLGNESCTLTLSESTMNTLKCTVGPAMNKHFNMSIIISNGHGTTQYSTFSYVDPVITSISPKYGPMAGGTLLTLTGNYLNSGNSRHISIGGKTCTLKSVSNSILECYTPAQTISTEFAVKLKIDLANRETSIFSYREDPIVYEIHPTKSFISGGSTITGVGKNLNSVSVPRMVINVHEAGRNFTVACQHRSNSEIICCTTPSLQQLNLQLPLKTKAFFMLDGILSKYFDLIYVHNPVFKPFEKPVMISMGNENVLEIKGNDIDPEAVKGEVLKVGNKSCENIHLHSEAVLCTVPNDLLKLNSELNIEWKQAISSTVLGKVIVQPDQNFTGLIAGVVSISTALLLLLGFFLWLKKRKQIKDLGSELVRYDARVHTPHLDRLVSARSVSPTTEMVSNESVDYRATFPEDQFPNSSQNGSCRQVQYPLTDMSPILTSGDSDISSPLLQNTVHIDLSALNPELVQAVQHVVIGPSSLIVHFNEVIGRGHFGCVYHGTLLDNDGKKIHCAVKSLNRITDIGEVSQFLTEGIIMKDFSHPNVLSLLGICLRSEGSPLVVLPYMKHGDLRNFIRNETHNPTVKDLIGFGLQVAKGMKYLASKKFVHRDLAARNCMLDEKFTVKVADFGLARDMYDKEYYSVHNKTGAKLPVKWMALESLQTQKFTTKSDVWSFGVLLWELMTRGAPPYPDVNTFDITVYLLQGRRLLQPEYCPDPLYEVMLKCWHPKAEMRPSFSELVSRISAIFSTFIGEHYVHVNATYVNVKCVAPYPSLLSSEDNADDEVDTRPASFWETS
T8 sequence (Q14680 whole entry): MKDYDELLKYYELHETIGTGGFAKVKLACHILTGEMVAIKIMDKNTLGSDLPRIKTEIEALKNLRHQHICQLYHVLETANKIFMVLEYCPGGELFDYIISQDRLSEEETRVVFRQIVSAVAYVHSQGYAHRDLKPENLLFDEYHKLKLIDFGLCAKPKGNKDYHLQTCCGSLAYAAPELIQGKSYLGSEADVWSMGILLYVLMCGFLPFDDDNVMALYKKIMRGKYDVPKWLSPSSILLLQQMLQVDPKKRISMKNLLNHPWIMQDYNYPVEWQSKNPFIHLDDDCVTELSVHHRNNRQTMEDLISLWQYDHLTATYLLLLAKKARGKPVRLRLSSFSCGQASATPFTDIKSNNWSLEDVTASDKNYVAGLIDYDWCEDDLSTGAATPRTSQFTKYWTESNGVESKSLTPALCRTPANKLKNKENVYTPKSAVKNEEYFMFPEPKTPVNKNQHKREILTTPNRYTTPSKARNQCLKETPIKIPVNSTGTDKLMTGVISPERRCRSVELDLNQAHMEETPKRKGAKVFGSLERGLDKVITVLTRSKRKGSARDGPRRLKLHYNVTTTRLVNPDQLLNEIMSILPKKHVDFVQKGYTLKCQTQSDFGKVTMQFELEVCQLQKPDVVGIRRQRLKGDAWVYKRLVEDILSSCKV

Row | SMILES | remaining binding at 1 µM (panel of 468 kinases [1]) | remaining binding at 1 µM (panel of 468 kinases [2]) | remaining binding at 1 µM (panel of 468 kinases [3]) | remaining binding at 1 µM (panel of 468 kinases [4]) | remaining binding at 1 µM (panel of 468 kinases [5]) | remaining binding at 1 µM (panel of 468 kinases [6]) | remaining binding at 1 µM (panel of 468 kinases [7]) | remaining binding at 1 µM (panel of 468 kinases [8]) | remaining binding at 1 µM (panel of 468 kinases [9]) | remaining binding at 1 µM (panel of 468 kinases [10]) | remaining binding at 1 µM (panel of 468 kinases [11]) | remaining binding at 1 µM (panel of 468 kinases [12]) | remaining binding at 1 µM (panel of 468 kinases [13])
1 | CNc1nc(Nc2ccc(S(=O)(=O)N3CCC(N4CCOCC4)CC3)cc2OC)nc2[nH]cc(Cl)c12 [Compound 12, 5-chloro-N2-(2-methoxy-4-((4-morpholinopiperidin-1-yl)sulfonyl)phenyl)-N4-methyl-7H-pyrrolo[2,3-d]pyrimidine-2,4-diamine] | 100% | 89% | 94% | 100% | 74% | 66% | 96% | 100% | 87% | 6.1% | 89% | 11% | 16%
2 | CNc1nc(Nc2ccc(C(=O)N3CCC(N4CCOCC4)CC3)c3c2OCO3)nc2[nH]cc(Cl)c12 [Compound 75, (7-((5-chloro-4-(methylamino)-7H-pyrrolo[2,3-d]pyrimidin-2-yl)amino)benzo[d][1,3]dioxol-4-yl)(4-morpholinopiperidin-1-yl)methanone] | 100% | 42% | 53% | 100% | 87% | 70% | 85% | 30% | 92% | 3.4% | 56% | 0.1% | 0.25%
3 | CNc1nc(Nc2ccc(P3(=O)CCN(C4CCOCC4)CC3)cc2OC)nc2[nH]cc(Cl)c12 [Compound 77, 4-(4-((5-chloro-4-(methylamino)-7H-pyrrolo[2,3-d]pyrimidin-2-yl)amino)-3-methoxyphenyl)-1-(tetrahydro-2H-pyran-4-yl)-1,4-azaphosphinane 4-oxide] | 100% | 100% | 78% | 100% | 69% | 64% | 98% | 85% | 96% | 7.1% | 100% | 0.65% | 0.9%
